One may read the IC50 as the concentration that inhibits the measured activity by half. Usually GI50 stands for the concentration giving 50% growth inhibition. Low readings indicate greater sensitivity of the cells, high ones lower sensitivity of the cells.

Where two headings read alike, the source gives them in different places.

The target of assay [1] is T1, menin-MLL interaction (Menin MLL 4-43) (Homo sapiens, UniProt O00255).
T1 sequence (O00255 1-610): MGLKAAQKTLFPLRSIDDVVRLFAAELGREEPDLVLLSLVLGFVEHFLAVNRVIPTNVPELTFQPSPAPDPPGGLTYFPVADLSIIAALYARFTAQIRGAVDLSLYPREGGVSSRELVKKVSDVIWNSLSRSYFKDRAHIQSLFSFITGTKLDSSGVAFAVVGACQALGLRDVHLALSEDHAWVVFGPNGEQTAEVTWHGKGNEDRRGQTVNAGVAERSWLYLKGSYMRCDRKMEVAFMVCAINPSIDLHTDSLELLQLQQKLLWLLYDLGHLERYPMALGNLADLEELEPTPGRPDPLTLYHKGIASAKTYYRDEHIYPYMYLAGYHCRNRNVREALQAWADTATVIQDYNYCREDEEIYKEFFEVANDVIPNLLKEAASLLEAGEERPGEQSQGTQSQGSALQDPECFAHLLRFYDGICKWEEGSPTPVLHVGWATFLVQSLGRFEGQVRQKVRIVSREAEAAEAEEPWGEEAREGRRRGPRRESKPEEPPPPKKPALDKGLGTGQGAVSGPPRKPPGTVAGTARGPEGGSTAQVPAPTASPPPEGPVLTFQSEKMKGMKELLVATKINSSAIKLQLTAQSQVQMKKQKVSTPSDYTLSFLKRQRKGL
Put plainly: Fluorescence polarization (FP) competition assay. It counts as binding. (In general: Fluorescence polarisation rises when a labelled molecule tumbles more slowly, as on binding a larger partner.)

Assay [2] concerns MV4;11 (human leukemia) tumor. Put plainly: Efficacy study in mouse xenograft tumor model. The assay is classed as in vivo. The note with it: female nude mice, subcutaneous MV4;11, oral gavage 150 mg/kg bid. The protocol:
Immunocompromised 8-10 week-old female nude (nu/nu) mice were used for in vivo efficacy studies in accordance with IACUC guidelines. Human MV4;11 leukemia cells available from ATCC were implanted subcutaneously into female nude mice (5×10^6 cells/mouse). When the tumor reached a size of approximately 150 to 250 mm^3, the tumor-bearing mice were randomly assigned to a vehicle control or a compound treatment group (8 mice per group). Mice in the treatment group were administered a compound of the present disclosure by oral gavage (150 mg/kg, bid). Subcutaneous tumor volume and mouse body weight were measured twice weekly. Tumor volumes were calculated by measuring two perpendicular diameters with calipers (V=(length×width^2)/2). […] As used in the Examples and Figures herein, Compound B refers to Compound 82 in Table 1.

The next assay relates to MV4;11 cells. Put plainly: MTT cell proliferation assay. The assay is classed as cell-based. The note with it: Homo sapiens. Here is the method: The ability of a compound of the present disclosure to inhibit the growth of cells was tested in MLL leukemia cell lines (e.g., MV4;11) using the MTT cell proliferation assay (ATCC® 30-1010K). […] Cells were plated at about 1×10^5 cells per well in a 96-well plate. A compound of the present disclosure was added at a concentration up to about 2 μM with seven, 2-fold serial dilutions for each compound. Cells were incubated at 37° C. for 72 hours, then cells in the control wells were counted. Media was changed to restore viable cell numbers to the original concentration, and compounds were re-supplied. Proliferation was measured 96 hours later using MTT reagents, as per kit instructions. […] As used in the Examples and Figures herein, Compound A refers to Compound 3 in Table 1.
Background: Formazan colour is commonly taken as a measure of viable cells.

[3] abbreviates: fluorescence polarization assay, read-out: Menin MLL 4-43 IC50.
Setting [4] is: measured in accordance with Example 8, read-out: IC50 value (ability of the compound to disrupt the menin-MLL interaction).

As for `CCC(=O)NC12CC(Cn3c(C#N)cc4c(C)c(CN5CCC(Nc6ncnc7sc(CC(F)(F)F)cc67)CC5)ccc43)(C1)C2` [Compound 3], the IC50 in assay [1] (setting [3]) was 50 to 250 nM; in assay [1] (setting [4]), at most 50 nM. Further, in assay [2], the “MV4;11 tumor growth (tumor volume) relative to vehicle control” value was “inhibited tumor growth and induced tumor regression”. Also, the GI50 in the assay with MV4;11 cells amounted to 40 nM.

Consider `CC[C@@H](NC)C(=O)NC12CC(Cn3c(C#N)cc4c(C)c(CN5CCC(Nc6ncnc7sc(CC(F)(F)F)cc67)CC5)ccc43)(C1)C2` [Compound 70], for which the IC50 in assay [1] (setting [3]) is under 50 nM. The same measure, in the same setting: to `CC[C@@H](N)C(=O)NC12CC(Cn3c(C#N)cc4c(C)c(CN5CCC(Nc6ncnc7sc(CC(F)(F)F)cc67)CC5)ccc43)(C1)C2` [Compound 71] belongs under 50 nM; to `CCCCC(N)C(=O)NC12CC(Cn3c(C#N)cc4c(C)c(CN5CCC(Nc6ncnc7sc(CC(F)(F)F)cc67)CC5)ccc43)(C1)C2` (stereo not shown) [Compound 72], 50 to 250 nM; to `CCCCC(NC)C(=O)NC12CC(Cn3c(C#N)cc4c(C)c(CN5CCC(Nc6ncnc7sc(CC(F)(F)F)cc67)CC5)ccc43)(C1)C2` (stereo not shown) [Compound 73], 50 to 250 nM. The same measure, in the same setting: to `Cc1c(CN2CCC(Nc3ncnc4sc(CC(F)(F)F)cc34)CC2)ccc2c1cc(C#N)n2CC12CC(NC(=O)C(N)CC(F)(F)F)(C1)C2` (stereo not shown) [Compound 74] belongs 250 to 1000 nM. Same read-out and setting: the value for `CCC(=O)NC12CC(Cn3c(C#N)cc4cc(CN5CCC(Nc6ncnc7sc(CC(F)(F)F)cc67)CC5)c(O)cc43)(C1)C2` [Compound 75] was 50 to 250 nM. On to `CNC(CO)C(=O)NC12CC(Cn3c(C#N)cc4c(C)c(CN5CCC(Nc6ncnc7sc(CC(F)(F)F)cc67)CC5)ccc43)(C1)C2` (stereo not shown) [Compound 76], for which, in assay [1] (setting [3]), the IC50 was under 50 nM. On the same count and under the same terms, to `Cc1c(CN2CCC(Nc3ncnc4sc(CC(F)(F)F)cc34)CC2)ccc2c1cc(C#N)n2CC12CC(NC(=O)Cc3ccccc3)(C1)C2` [Compound 77] belongs 250 to 1000 nM. Same read-out and setting: the value for `Cc1c(CN2CCC(Nc3ncnc4sc(CC(F)(F)F)cc34)CC2)ccc2c1cc(C#N)n2CC12CC(NC(=O)Cc3cccc(N)c3)(C1)C2` [Compound 78] was 250 to 1000 nM; that for `CNc1nc(NC2CCN(Cc3ccc4c(cc(C#N)n4CC45CC(NC(=O)Cc6cccc(N)c6)(C4)C5)c3C)CC2)c2cc(CC(F)(F)F)sc2n1` [Compound 79] was under 50 nM.

On to `CNc1nc(NC2CCN(Cc3ccc4c(cc(C#N)n4CC45CC(NC(=O)Cc6ccccc6N)(C4)C5)c3C)CC2)c2cc(CC(F)(F)F)sc2n1` [Compound 80], for which, in assay [1] (setting [3]), the IC50 is under 50 nM. As for `CNc1nc(NC2CCN(Cc3ccc4c(cc(C#N)n4CC45CC(NC(C)=O)(C4)C5)c3C)CC2)c2cc(CC(F)(F)F)sc2n1` [Compound 82], the results for the IC50 in assay [1] (setting [3]) and in assay [1] (setting [4]) were under 50 nM and at most 50 nM, respectively. Moreover, the “MV4;11 tumor growth (tumor volume) relative to vehicle control” value in assay [2] is “inhibited tumor growth and induced tumor regression”. For `Cc1nc(NC2CCN(Cc3ccc4c(cc(C#N)n4CC45CC(NC=O)(C4)C5)c3C)CC2)c2cc(CC(F)(F)F)sc2n1` [Compound 83], in assay [1] (setting [3]), the IC50 was under 50 nM.

As to `CC(=O)NC12CC(Cn3c(C#N)cc4c(C)c(CN5CCC(Nc6nc(C)nc7sc(CC(F)(F)F)cc67)CC5)ccc43)(C1)C2` [Compound 84], in assay [1] (setting [3]), the IC50 was under 50 nM. In the case of `CNc1nc(NC2CCN(Cc3ccc4c(cc(C#N)n4CC45CC(NC=O)(C4)C5)c3C)CC2)c2cc(CC(F)(F)F)sc2n1` [Compound 85], the IC50 in assay [1] (setting [3]) was under 50 nM. Still for that read-out and setting: the value for `CCC(=O)NC12CC(Cn3c(C#N)cc4c(C)c(CN5CCC(Nc6nc(NC)nc7sc(CC(F)(F)F)cc67)CC5)ccc43)(C1)C2` [Compound 86] was under 50 nM.

(Values after patent publication US11555041B2, “Bridged bicyclic inhibitors of menin-MLL and methods of use” (Kura Oncology, Inc., priority 2016, dated 2023).)
